The values that follow come from ChEMBL document CHEMBL1150596, “Gymnasterkoreaynes A-F, cytotoxic polyacetylenes from Gymnaster koraiensis” (2002).

In brackets after ≈: the same amount, converted by molar mass.

This assay relates to L1210. The assay can be described thus: Cytotoxicity against mouse L1210 cells after 48 hrs by WST-1 assay. It is filed as functional. As to conditions: L1210, 48 h, read-out: ED50 (the source's name). Background: Tetrazolium assays rely on reduction of a dye to a coloured formazan, in cell work by metabolically active cells.
Take `C=CCCCCC/C=C\[C@H](O)C#CC#C/C=C/COC(C)=O` [GYMNASTERKOREAYNE D]: the EC50 was 7.7 µg/mL (≈ 25.6 µM).
Turning to `C=CCCCCC/C=C\C(O)C#CC#C/C=C/C` (stereo not drawn), the EC50 amounted to 10.4 µg/mL (≈ 42.9 µM).
Under `C=CCCCCC/C=C\[C@H](O)C#CC#CC1OC1C` (stereo partly drawn) [GYMNASTERKOREAYNE B] stands 3.3 µg/mL (≈ 12.8 µM); under `C=CCCCCC/C=C/[C@H](O)C#CC#C[C@@H](O)[C@H](C)O` [GYMNASTERKOREAYNE E], 9.6 µg/mL (≈ 34.7 µM); under `C=CCCCCC/C=C\[C@H](O)C#CC#C/C=C/CO` [GYMNASTERKOREAYNE F], 3.1 µg/mL (≈ 12 µM).
Consider `C/C=C/C#CC#C[C@H](O)CCO` [GYMNASTERKOREAYNE A], for which the EC50 is more than 10 µg/mL.
Under `C=CCCCCC/C=C\C(O)C#CC#CC(O)C=C` (stereo not drawn) stands 0.12 µg/mL (≈ 0.464 µM).
For `C=CCCCCC/C=C\[C@H](O)C#CC#C[C@H](C=C)OC(C)=O` [GYMNASTERKOREAYNE C], the EC50 stood at 2.1 µg/mL (≈ 6.99 µM).
